Data on 19 molecules can be found in patent US20260193293A1, “PEPTIDES CAPABLE OF INHIBITING PROTEIN-PROTEIN INTERACTIONS AT GABAB1A SUBUNIT AND USES THEREOF” (UNIVERSITY OF COPENHAGEN, priority 2022, published 2026).

Non-standard residues stand in square brackets, D forms with d. Residues, ends and D or L forms follow the SMILES beside them. NMeW = CN[C@@H](Cc1c[nH]c2ccccc12)C(=O)O; NMeI = CC[C@H](C)[C@H](NC)C(=O)O; NMeV = CN[C@H](C(=O)O)C(C)C; NMeA = CN[C@@H](C)C(=O)O

The Ki is a dissociation constant, usually derived from enzyme kinetics or from competition with a known ligand.

The target in one assay is Sushi domains (SD1/2) protein. Nature of the assay: Fluorescence polarization (FP) competition assay with AJAP-1probe, calculated Ki. The class given is binding. The settings on record: Table 5, elongation and truncation scan of AJAP-1 binding epitope; read-out: Ki (nM) mean ± SEM. In outline: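 Competition against 25 nM TAMRA-labelled peptide probe binding SD1/2, in PBS pH 7.4 with 1% BSA at rt, read at 530/580 nm. IC50 from sigmoidal dose-response fits, at least triplicate; Ki calculated from IC50 using probe Kd from saturation binding.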
As for `CC[C@H](C)[C@H](NC(=O)[C@H](Cc1ccccc1)NC(C)=O)C(=O)N[C@@H](C)C(=O)N[C@@H](Cc1c[nH]c2ccccc12)C(=O)NCC(=O)N1CCC[C@H]1C(=O)N[C@H](C(=O)NCC(=O)N[C@@H](CC(=O)O)C(=O)N[C@@H](CCC(=O)O)C(=O)N[C@@H](CC(=O)O)C(N)=O)[C@@H](C)O` [FIAWGPTGDED] (Ac-FIAWGPTGDED-NH2), the inhibitory constant (Ki) is 118 ± 1 nM.
On to `CC[C@H](C)[C@H](NC(C)=O)C(=O)N[C@@H](C)C(=O)N[C@@H](Cc1c[nH]c2ccccc12)C(=O)NCC(=O)N1CCC[C@H]1C(=O)N[C@H](C(=O)NCC(=O)N[C@@H](CC(=O)O)C(=O)N[C@@H](CCC(=O)O)C(=O)N[C@@H](CC(=O)O)C(N)=O)[C@@H](C)O` [IAWGPTGDED] (Ac-IAWGPTGDED-NH2), for which the inhibition constant Ki is 38000 ± 430 nM.

The assay is the same for the next values; noted with them: Table 9, Ala-, D-amino acids and N-methylation scans of PIANPWT; read-out: Ki (nM) mean ± SEM.
With `CC[C@H](C)[C@H](NC(=O)[C@H](C)NC(=O)[C@H](Cc1c[nH]c2ccccc12)N(C)C(=O)[C@@H]1CCCN1C(C)=O)C(=O)N[C@H](C(=O)N[C@@H](Cc1c[nH]c2ccccc12)C(=O)NCC(=O)N1CCC[C@H]1C(=O)N[C@H](C(=O)N[C@H](C(=O)N[C@@H](CO)C(=O)N[C@@H](CCCNC(=N)N)C(=O)N[C@@H](CCC(=O)O)C(=O)N[C@@H](CC(=O)O)C(N)=O)C(C)C)[C@@H](C)O)C(C)C` [P(N-Me-W)AIVWGPTVSRED] (Ac-P[NMeW]AIVWGPTVSRED-NH2), the inhibition constant Ki is 833 ± 12 nM.
Same read-out and setting: as for `CC[C@H](C)[C@H](NC(=O)[C@H](C)NC(=O)[C@H](C)NC(=O)[C@@H]1CCCN1C(C)=O)C(=O)N[C@H](C(=O)N[C@@H](Cc1c[nH]c2ccccc12)C(=O)NCC(=O)N1CCC[C@H]1C(=O)N[C@H](C(=O)N[C@H](C(=O)N[C@@H](CO)C(=O)N[C@@H](CCCNC(=N)N)C(=O)N[C@@H](CCC(=O)O)C(=O)N[C@@H](CC(=O)O)C(N)=O)C(C)C)[C@@H](C)O)C(C)C` [PAAIVWGPTVSRED] (Ac-PAAIVWGPTVSRED-NH2), the figure is 911 ± 13 nM; as for `CC[C@H](C)[C@H](NC(=O)[C@H](C)N(C)C(=O)[C@H](Cc1c[nH]c2ccccc12)NC(=O)[C@@H]1CCCN1C(C)=O)C(=O)N[C@H](C(=O)N[C@@H](Cc1c[nH]c2ccccc12)C(=O)NCC(=O)N1CCC[C@H]1C(=O)N[C@H](C(=O)N[C@H](C(=O)N[C@@H](CO)C(=O)N[C@@H](CCCNC(=N)N)C(=O)N[C@@H](CCC(=O)O)C(=O)N[C@@H](CC(=O)O)C(N)=O)C(C)C)[C@@H](C)O)C(C)C` [PW(N-Me-A)IVWGPTVSRED] (Ac-PW[NMeA]IVWGPTVSRED-NH2), 7230 ± 130 nM; as for `CC[C@H](C)[C@@H](C(=O)N[C@H](C(=O)N[C@@H](Cc1c[nH]c2ccccc12)C(=O)NCC(=O)N1CCC[C@H]1C(=O)N[C@H](C(=O)N[C@H](C(=O)N[C@@H](CO)C(=O)N[C@@H](CCCNC(=N)N)C(=O)N[C@@H](CCC(=O)O)C(=O)N[C@@H](CC(=O)O)C(N)=O)C(C)C)[C@@H](C)O)C(C)C)N(C)C(=O)[C@H](C)NC(=O)[C@H](Cc1c[nH]c2ccccc12)NC(=O)[C@@H]1CCCN1C(C)=O` [PWA(N-Me-I)VWGPTVSRED] (Ac-PWA[NMeI]VWGPTVSRED-NH2), 370 ± 5 nM.
Same read-out and setting: as for `CC(=O)N1CCC[C@H]1C(=O)N[C@@H](Cc1c[nH]c2ccccc12)C(=O)N[C@@H](C)C(=O)N[C@@H](C)C(=O)N[C@H](C(=O)N[C@@H](Cc1c[nH]c2ccccc12)C(=O)NCC(=O)N1CCC[C@H]1C(=O)N[C@H](C(=O)N[C@H](C(=O)N[C@@H](CO)C(=O)N[C@@H](CCCNC(=N)N)C(=O)N[C@@H](CCC(=O)O)C(=O)N[C@@H](CC(=O)O)C(N)=O)C(C)C)[C@@H](C)O)C(C)C` [PWAAVWGPTVSRED] (Ac-PWAAVWGPTVSRED-NH2), the figure is 46600 ± 4840 nM; as for `CC[C@H](C)[C@H](NC(=O)[C@H](C)NC(=O)[C@H](Cc1c[nH]c2ccccc12)NC(=O)[C@@H]1CCCN1C(C)=O)C(=O)N(C)[C@H](C(=O)N[C@@H](Cc1c[nH]c2ccccc12)C(=O)NCC(=O)N1CCC[C@H]1C(=O)N[C@H](C(=O)N[C@H](C(=O)N[C@@H](CO)C(=O)N[C@@H](CCCNC(=N)N)C(=O)N[C@@H](CCC(=O)O)C(=O)N[C@@H](CC(=O)O)C(N)=O)C(C)C)[C@@H](C)O)C(C)C` [PWAI(N-Me-V)WGPTVSRED] (Ac-PWAI[NMeV]WGPTVSRED-NH2), 7000 ± 100 nM.
In the case of `CC[C@H](C)[C@H](NC(=O)[C@H](C)NC(=O)[C@H](Cc1c[nH]c2ccccc12)NC(=O)[C@@H]1CCCN1C(C)=O)C(=O)N[C@@H](C)C(=O)N[C@@H](Cc1c[nH]c2ccccc12)C(=O)NCC(=O)N1CCC[C@H]1C(=O)N[C@H](C(=O)N[C@H](C(=O)N[C@@H](CO)C(=O)N[C@@H](CCCNC(=N)N)C(=O)N[C@@H](CCC(=O)O)C(=O)N[C@@H](CC(=O)O)C(N)=O)C(C)C)[C@@H](C)O` [PWAIAWGPTVSRED], the inhibition constant Ki is 1462 ± 14 nM.
Still for that read-out and setting: as for `CC[C@H](C)[C@H](NC(=O)[C@H](C)NC(=O)[C@H](Cc1c[nH]c2ccccc12)NC(=O)[C@@H]1CCCN1C(C)=O)C(=O)N[C@H](C(=O)N(C)[C@@H](Cc1c[nH]c2ccccc12)C(=O)NCC(=O)N1CCC[C@H]1C(=O)N[C@H](C(=O)N[C@H](C(=O)N[C@@H](CO)C(=O)N[C@@H](CCCNC(=N)N)C(=O)N[C@@H](CCC(=O)O)C(=O)N[C@@H](CC(=O)O)C(N)=O)C(C)C)[C@@H](C)O)C(C)C` [PWAIV(N-Me-W)GPTVSRED] (Ac-PWAIV[NMeW]GPTVSRED-NH2), the figure is 636 ± 6 nM.

Still in this assay, the particulars now being: Table 11, deep mutational scanning validation variants of AJAP-1WT; read-out: Ki (nM) mean ± SEM.
As for `CC[C@H](C)[C@H](NC(=O)[C@H](Cc1ccccc1)NC(=O)[C@H](Cc1c[nH]cn1)NC(=O)[C@@H](NC(=O)[C@H](CCC(=O)O)NC(C)=O)[C@@H](C)O)C(=O)N[C@@H](C)C(=O)N[C@@H](Cc1c[nH]c2ccccc12)C(=O)NCC(=O)N1CCC[C@H]1C(=O)N[C@H](C(=O)NCC(=O)N[C@@H](CC(=O)O)C(=O)N[C@@H](CCC(=O)O)C(=O)N[C@@H](CC(=O)O)C(N)=O)[C@@H](C)O` [ETHFIAWGPTGDED], the inhibition constant (Ki) is 58 ± 4 nM.
For `CC[C@H](C)[C@H](NC(=O)[C@H](Cc1ccccc1)NC(=O)[C@H](CO)NC(=O)[C@@H](NC(=O)[C@H](CCC(=O)O)NC(C)=O)[C@@H](C)O)C(=O)N[C@@H](C)C(=O)N[C@@H](Cc1c[nH]c2ccccc12)C(=O)NCC(=O)N1CCC[C@H]1C(=O)N[C@H](C(=O)NCC(=O)N[C@@H](CC(=O)O)C(=O)N[C@@H](CCC(=O)O)C(=O)N[C@@H](CC(=O)O)C(N)=O)[C@@H](C)O` [ETSFIAWGPTGDED] (Ac-ETSFIAWGPTGDED-NH2), the Ki is 34 ± 1 nM.
Still for that read-out and setting: the value for `CC[C@H](C)[C@H](NC(=O)[C@H](Cc1ccccc1)NC(=O)[C@H](CCC(=O)O)NC(=O)[C@@H](NC(=O)[C@H](CCC(=O)O)NC(C)=O)C(C)C)C(=O)N[C@@H](C)C(=O)N[C@@H](Cc1c[nH]c2ccccc12)C(=O)NCC(=O)N1CCC[C@H]1C(=O)N[C@H](C(=O)NCC(=O)N[C@@H](CC(=O)O)C(=O)N[C@@H](CCC(=O)O)C(=O)N[C@@H](CC(=O)O)C(N)=O)[C@@H](C)O` [EVEFIAWGPTGDED] (Ac-EVEFIAWGPTGDED-NH2) was 28 ± 1 nM.
For the molecule `CC[C@H](C)[C@H](NC(=O)[C@H](Cc1ccccc1)NC(=O)[C@H](CCC(=O)O)NC(=O)[C@@H](NC(=O)[C@H](CC(N)=O)NC(C)=O)[C@@H](C)O)C(=O)N[C@@H](C)C(=O)N[C@@H](Cc1c[nH]c2ccccc12)C(=O)NCC(=O)N1CCC[C@H]1C(=O)N[C@H](C(=O)NCC(=O)N[C@@H](CC(=O)O)C(=O)N[C@@H](CCC(=O)O)C(=O)N[C@@H](CC(=O)O)C(N)=O)[C@@H](C)O` [NTEFIAWGPTGDED] (Ac-NTEFIAWGPTGDED-NH2), the Ki was 62 ± 3 nM.

Still in this assay, the particulars now being: Table 12, deep mutational scanning validation variants of PIANPWT; read-out: Ki (nM) mean ± SEM.
With `CC[C@H](C)[C@H](NC(=O)[C@H](C)NC(=O)[C@H](CC(=O)O)NC(=O)[C@@H]1CCCN1C(C)=O)C(=O)N[C@H](C(=O)N[C@@H](Cc1c[nH]c2ccccc12)C(=O)NCC(=O)N1CCC[C@H]1C(=O)N[C@H](C(=O)N[C@H](C(=O)N[C@@H](CO)C(=O)N[C@@H](CCCNC(=N)N)C(=O)N[C@@H](CCC(=O)O)C(=O)N[C@@H](CC(=O)O)C(N)=O)C(C)C)[C@@H](C)O)C(C)C` [PDAIVWGPTVSRED] (Ac-PDAIVWGPTVSRED-NH2), the inhibition constant Ki was 673 ± 7 nM.
Still for that read-out and setting: the value for `CC[C@H](C)[C@H](NC(=O)[C@H](C)NC(=O)[C@H](Cc1ccccc1)NC(=O)[C@@H]1CCCN1C(C)=O)C(=O)N[C@H](C(=O)N[C@@H](Cc1c[nH]c2ccccc12)C(=O)NCC(=O)N1CCC[C@H]1C(=O)N[C@H](C(=O)N[C@H](C(=O)N[C@@H](CO)C(=O)N[C@@H](CCCNC(=N)N)C(=O)N[C@@H](CCC(=O)O)C(=O)N[C@@H](CC(=O)O)C(N)=O)C(C)C)[C@@H](C)O)C(C)C` [PFAIVWGPTVSRED] (Ac-PFAIVWGPTVSRED-NH2) was 792 ± 11 nM; that for `CC[C@H](C)[C@H](NC(=O)[C@H](C)NC(=O)[C@H](Cc1c[nH]cn1)NC(=O)[C@@H]1CCCN1C(C)=O)C(=O)N[C@H](C(=O)N[C@@H](Cc1c[nH]c2ccccc12)C(=O)NCC(=O)N1CCC[C@H]1C(=O)N[C@H](C(=O)N[C@H](C(=O)N[C@@H](CO)C(=O)N[C@@H](CCCNC(=N)N)C(=O)N[C@@H](CCC(=O)O)C(=O)N[C@@H](CC(=O)O)C(N)=O)C(C)C)[C@@H](C)O)C(C)C` [PHAIVWGPTVSRED] (Ac-PHAIVWGPTVSRED-NH2) was 1500 ± 50 nM.
The same measure, in the same setting: the value for `CC[C@H](C)[C@H](NC(=O)[C@H](C)NC(=O)[C@H](CO)NC(=O)[C@@H]1CCCN1C(C)=O)C(=O)N[C@H](C(=O)N[C@@H](Cc1c[nH]c2ccccc12)C(=O)NCC(=O)N1CCC[C@H]1C(=O)N[C@H](C(=O)N[C@H](C(=O)N[C@@H](CO)C(=O)N[C@@H](CCCNC(=N)N)C(=O)N[C@@H](CCC(=O)O)C(=O)N[C@@H](CC(=O)O)C(N)=O)C(C)C)[C@@H](C)O)C(C)C` [PSAIVWGPTVSRED] (Ac-PSAIVWGPTVSRED-NH2) was 906 ± 20 nM.
On the same count and under the same terms, as for `CC[C@H](C)[C@H](NC(=O)[C@H](C)NC(=O)[C@H](Cc1c[nH]c2ccccc12)NC(=O)[C@@H]1CCCN1C(C)=O)C(=O)N[C@@H](CC(=O)O)C(=O)N[C@@H](Cc1c[nH]c2ccccc12)C(=O)NCC(=O)N1CCC[C@H]1C(=O)N[C@H](C(=O)N[C@H](C(=O)N[C@@H](CO)C(=O)N[C@@H](CCCNC(=N)N)C(=O)N[C@@H](CCC(=O)O)C(=O)N[C@@H](CC(=O)O)C(N)=O)C(C)C)[C@@H](C)O` [PWAIDWGPTVSRED] (Ac-PWAIDWGPTVSRED-NH2), the figure is 1300 ± 16 nM.
